In US20250170248A1, “SMARCA DEGRADERS AND USES THEREOF” (Kymera Therapeutics, Inc., priority 2021, published 2025):

Tests used:
Format in all cases: cell-based
[1] = target: T1, SMARCA2 (Homo sapiens, UniProt P51531); assay: SMARCA2 Western blot degradation in MV4-11 cells; set-up: SMARCA2/SMARCA4 protein degradation selectivity in MV4-11 cells; endogenous in cells; host or cells: MV4-11; settings: for Dmax: MV4-11, MV4-11 cells, read-out: SMARCA2 MSD MV411 degradation 24 h: average Dmax %; for Dmax / DC50 / SMARCA2 MSD MV411 degradation 24 h: average Dmax %: 24 h; for DC50 / Selectivity in MV411 / SMARCA2 MSD MV411 degradation 24 h: average Dmax %: MV4-11 cells; for DC50: read-out: SMARCA2 MSD MV411 degradation 24 h: Mean external-Abs DC50; for Selectivity in MV411: SMARCA2/4 selectivity
[2] = target: T2, SMARCA4 (Homo sapiens, UniProt P51532); assay: SMARCA4 Western blot degradation in MV4-11 cells; settings: for Dmax: MV4-11, MV4-11 cells, read-out: SMARCA4 MSD MV411 degradation 24 h: average Dmax %; for Dmax / DC50: 24 h; for DC50 / SMARCA4 MSD MV411 degradation 24 h: average Dmax %: MV4-11 cells; for DC50: read-out: SMARCA4 MSD MV411 degradation 24 h: Mean external-Abs DC50
T2 construct: SMARCA2/SMARCA4 protein degradation selectivity in MV4-11 cells; endogenous in cells; host or cells: MV4-11
Outline: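 Fluorescent LI-COR imaging of Western blots quantified SMARCA2 and SMARCA4 protein remaining in MV4-11 cells after 24 h of compound treatment. β-actin was the loading control, and DC50, Dmax and SMARCA2/4 selectivity are given as letter-coded ranges.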

[3] = target: T1, SMARCA2; assay: MSD SMARCA2 degradation in A549 cell line; settings: for Dmax: A549, A549 cells; for Dmax / DC50: 24 h; for DC50 / SMARCA2 MSD A549 degradation 24 h: Average Dmax %: A549 cells; for DC50: read-out: SMARCA2 MSD A549 degradation 24 h: Average external-Abs DC50
Outline: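 SMARCA2 protein remaining after 24 h exposure of A549 cells (top concentration 1000 nM, 3-fold dilutions) was measured by MSD electrochemiluminescence immunoassay of cell lysates. Results are given as binned DC50 and maximal degradation (Dmax) codes.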

T1 sequence (P51531 whole entry): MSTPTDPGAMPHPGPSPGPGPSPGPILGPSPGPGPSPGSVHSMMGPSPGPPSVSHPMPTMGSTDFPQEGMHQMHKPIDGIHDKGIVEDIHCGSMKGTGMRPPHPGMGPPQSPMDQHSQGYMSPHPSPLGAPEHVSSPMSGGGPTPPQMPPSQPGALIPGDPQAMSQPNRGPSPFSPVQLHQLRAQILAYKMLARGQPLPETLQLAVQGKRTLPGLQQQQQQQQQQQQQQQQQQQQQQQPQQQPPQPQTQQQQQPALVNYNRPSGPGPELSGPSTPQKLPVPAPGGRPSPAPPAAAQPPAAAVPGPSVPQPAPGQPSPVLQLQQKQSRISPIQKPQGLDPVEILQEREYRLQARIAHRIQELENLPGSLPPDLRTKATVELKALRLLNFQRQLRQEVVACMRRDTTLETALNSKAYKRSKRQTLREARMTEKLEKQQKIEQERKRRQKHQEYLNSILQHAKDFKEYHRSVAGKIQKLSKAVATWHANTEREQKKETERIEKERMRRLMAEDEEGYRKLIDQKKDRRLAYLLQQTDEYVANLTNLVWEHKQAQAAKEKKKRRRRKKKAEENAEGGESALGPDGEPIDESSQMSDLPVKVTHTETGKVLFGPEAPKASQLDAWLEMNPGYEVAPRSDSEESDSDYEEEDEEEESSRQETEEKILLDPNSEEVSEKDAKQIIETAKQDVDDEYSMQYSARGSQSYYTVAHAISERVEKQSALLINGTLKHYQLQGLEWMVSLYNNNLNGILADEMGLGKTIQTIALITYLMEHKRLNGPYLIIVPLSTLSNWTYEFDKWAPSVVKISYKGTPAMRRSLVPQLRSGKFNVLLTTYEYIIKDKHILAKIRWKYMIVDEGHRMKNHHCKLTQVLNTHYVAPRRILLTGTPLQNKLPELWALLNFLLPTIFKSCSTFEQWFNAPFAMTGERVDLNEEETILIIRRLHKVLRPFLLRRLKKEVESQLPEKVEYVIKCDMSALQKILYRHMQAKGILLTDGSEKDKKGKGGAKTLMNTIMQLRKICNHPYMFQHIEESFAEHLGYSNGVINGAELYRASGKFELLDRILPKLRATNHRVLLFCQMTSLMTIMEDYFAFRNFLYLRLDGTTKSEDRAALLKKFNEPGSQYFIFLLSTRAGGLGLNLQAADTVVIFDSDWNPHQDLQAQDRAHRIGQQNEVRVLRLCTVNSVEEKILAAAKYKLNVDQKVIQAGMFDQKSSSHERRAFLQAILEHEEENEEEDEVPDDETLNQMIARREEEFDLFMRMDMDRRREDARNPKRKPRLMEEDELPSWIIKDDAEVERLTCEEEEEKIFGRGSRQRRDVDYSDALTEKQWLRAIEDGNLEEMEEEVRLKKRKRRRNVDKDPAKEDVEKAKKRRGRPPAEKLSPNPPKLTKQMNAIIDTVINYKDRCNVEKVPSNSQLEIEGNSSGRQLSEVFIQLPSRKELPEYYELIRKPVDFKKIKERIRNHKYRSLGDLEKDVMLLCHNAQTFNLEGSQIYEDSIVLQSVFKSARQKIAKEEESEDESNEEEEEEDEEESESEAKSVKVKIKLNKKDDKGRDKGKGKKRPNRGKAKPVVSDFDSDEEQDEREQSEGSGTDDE
T2 sequence (P51532 whole entry): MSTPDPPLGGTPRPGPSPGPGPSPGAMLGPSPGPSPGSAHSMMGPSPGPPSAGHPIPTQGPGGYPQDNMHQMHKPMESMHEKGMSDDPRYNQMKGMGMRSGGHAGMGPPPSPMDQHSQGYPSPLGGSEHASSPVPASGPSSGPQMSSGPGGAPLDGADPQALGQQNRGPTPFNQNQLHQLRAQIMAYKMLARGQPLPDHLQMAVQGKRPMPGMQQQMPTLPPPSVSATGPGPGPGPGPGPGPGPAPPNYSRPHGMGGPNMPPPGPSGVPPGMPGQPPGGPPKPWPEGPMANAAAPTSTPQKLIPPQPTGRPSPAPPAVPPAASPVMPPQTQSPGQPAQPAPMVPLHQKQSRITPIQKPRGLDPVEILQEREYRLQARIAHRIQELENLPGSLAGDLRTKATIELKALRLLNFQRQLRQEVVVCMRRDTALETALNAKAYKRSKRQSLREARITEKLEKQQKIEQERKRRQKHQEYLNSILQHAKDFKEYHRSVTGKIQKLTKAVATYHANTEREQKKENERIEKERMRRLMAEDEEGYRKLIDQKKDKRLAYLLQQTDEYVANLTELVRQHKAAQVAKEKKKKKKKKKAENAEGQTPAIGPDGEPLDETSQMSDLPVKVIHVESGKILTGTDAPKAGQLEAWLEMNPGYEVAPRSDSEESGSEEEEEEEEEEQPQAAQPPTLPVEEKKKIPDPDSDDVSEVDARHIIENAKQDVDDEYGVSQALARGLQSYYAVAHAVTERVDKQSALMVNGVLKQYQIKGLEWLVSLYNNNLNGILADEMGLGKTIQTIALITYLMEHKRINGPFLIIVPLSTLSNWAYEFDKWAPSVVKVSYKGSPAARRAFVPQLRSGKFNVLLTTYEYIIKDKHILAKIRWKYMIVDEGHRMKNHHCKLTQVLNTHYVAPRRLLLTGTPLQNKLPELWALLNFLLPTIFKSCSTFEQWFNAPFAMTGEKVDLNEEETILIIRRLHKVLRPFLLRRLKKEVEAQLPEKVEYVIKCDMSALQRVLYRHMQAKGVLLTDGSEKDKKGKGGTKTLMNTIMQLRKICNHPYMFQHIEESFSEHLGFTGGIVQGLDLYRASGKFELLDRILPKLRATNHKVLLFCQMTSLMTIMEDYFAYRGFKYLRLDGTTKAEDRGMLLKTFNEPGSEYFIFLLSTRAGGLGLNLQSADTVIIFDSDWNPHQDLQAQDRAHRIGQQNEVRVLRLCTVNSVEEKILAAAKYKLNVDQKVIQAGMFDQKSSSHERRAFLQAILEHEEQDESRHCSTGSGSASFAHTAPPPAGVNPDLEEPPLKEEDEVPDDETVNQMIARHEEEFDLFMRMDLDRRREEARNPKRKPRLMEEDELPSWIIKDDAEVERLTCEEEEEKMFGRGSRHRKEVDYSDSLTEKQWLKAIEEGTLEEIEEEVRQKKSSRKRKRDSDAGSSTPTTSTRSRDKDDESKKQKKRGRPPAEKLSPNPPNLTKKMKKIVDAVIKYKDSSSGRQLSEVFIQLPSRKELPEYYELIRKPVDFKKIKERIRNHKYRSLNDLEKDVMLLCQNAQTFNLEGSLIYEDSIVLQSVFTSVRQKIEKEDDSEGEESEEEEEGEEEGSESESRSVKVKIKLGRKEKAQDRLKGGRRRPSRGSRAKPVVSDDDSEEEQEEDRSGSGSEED

Row | Dmax [1] | DC50 [1] | Selectivity in MV411 [1] | Dmax [2] | DC50 [2] | Dmax [3] | DC50 [3] | SMARCA2 MSD A549 degradation 24 h: Average Dmax % [3] | SMARCA2 MSD MV411 degradation 24 h: average Dmax % [1] | SMARCA4 MSD MV411 degradation 24 h: average Dmax % [2] | Structure (SMILES)
1 | > 90% | < 1 nM | C (C (10-100 fold)) | > 90% | 1 to 10 nM | > 90% | < 10 nM |  |  |  | Cc1ncsc1-c1ccc(CNC(=O)[C@@H]2C[C@@H](O)CN2C(=O)[C@@H](NC(=O)[C@H]2CC3(CC[C@H](N4CCN(c5ccnc(N6CCc7[nH]c8nnc(-c9ccccc9O)cc8c7[C@H]6C)n5)CC4)CC3)C2)C(C)(C)C)cc1 (stereo partly drawn) [I-80]
2 | > 90% | 1 to 10 nM | C (C (10-100 fold)) | > 90% | 10 to 100 nM | > 90% | > 100 nM |  |  |  | C#Cc1ccc(CNC(=O)[C@@H]2C[C@@H](O)CN2C(=O)[C@@H](NC(=O)[C@H]2CC3(C2)C[C@H](N2CCN(C(=O)CCN4CCN5c6cc(-c7ccccc7O)nnc6NC[C@H]5C4)CC2)C3)C(C)(C)C)cc1 (stereo partly drawn) [I-274]
3 | > 90% | 1 to 10 nM | C (C (10-100 fold)) | 70 to 90% | 10 to 100 nM | > 90% | < 10 nM |  |  |  | Cc1ncsc1-c1ccc(CNC(=O)[C@@H]2C[C@@H](O)CN2C(=O)[C@@H](NC(=O)N2CC3(CC(N4CCN(c5cnc(N6CCc7[nH]c8nnc(-c9ccccc9O)cc8c7[C@H]6C)nc5)CC4)C3)C2)C(C)(C)C)cc1 [I-82]
4 | 70 to 90% | 1 to 10 nM | B (B (>100-500 fold)) | < 50% | > 100 nM | > 90% | > 100 nM |  |  |  | C#Cc1ccc(CNC(=O)[C@@H]2C[C@@H](O)CN2C(=O)[C@@H](NC(=O)N2CC3(CC(N4CCC(N5CC6(CC(N7CCc8[nH]c9nnc(-c%10ccccc%10O)cc9c8[C@H]7C)C6)C5)CC4)C3)C2)C(C)(C)C)cc1 [I-207]
5 | 50 to 70% | > 100 nM | C (C (10-100 fold)) | < 50% | > 100 nM | 50 to 70% | > 100 nM |  |  |  | C#Cc1cnc(CNC(=O)[C@@H]2C[C@@H](O)CN2C(=O)[C@@H](NC(=O)[C@H]2CC3(C2)C[C@H](N2CCC(N4CCC(N5CCN6c7cc(-c8ccccc8O)nnc7NC[C@H]6C5)CC4)CC2)C3)C(C)(C)C)c(OC)c1 (single isomer, unassigned) [I-330]
6 | < 50% | > 100 nM | C (C (10-100 fold)) | 70 to 90% | > 100 nM |  | > 100 nM | A (A (>90% degradation)) |  |  | Cc1cc(Cl)ccc1C#CCNC(=O)[C@@H]1C[C@@H](O)CN1C(=O)[C@@H](NC(=O)[C@H]1CCC2(CC1)C[C@H](N1CCC(c3cnc(N4CCN5c6cc(-c7ccccc7O)nnc6NC[C@H]5C4)nc3)CC1)C2)C(C)(C)C (single isomer, unassigned) [I-104]
7 |  | 10 to 100 nM | C (C (10-100 fold)) |  | > 100 nM |  | > 100 nM | A (A (>90% degradation)) | B (B (>70-90% degradation)) | C (C (50-70% degradation)) | Cc1ncsc1-c1ccc(CNC(=O)[C@@H]2C[C@@H](O)CN2C(=O)[C@@H](NC(=O)[C@H]2CCC3(CC2)C[C@H](N2CCC4(CC2)CN(C(=O)N2CCN5c6cc(-c7ccccc7O)nnc6NC[C@H]5C2)CCO4)C3)C(C)(C)C)cc1 (single isomer, unassigned) [I-93]
8 |  | 1 to 10 nM | C (C (10-100 fold)) |  | 10 to 100 nM |  | 50 to 100 nM | A (A (>90% degradation)) | B (B (>70-90% degradation)) | B (B (>70-90% degradation)) | C#Cc1ccc(CNC(=O)[C@@H]2C[C@@H](O)CN2C(=O)[C@@H](NC(=O)[C@H]2CCC3(CC2)C[C@H](N2CCC(c4cnc(N5CCN6c7cc(-c8ccccc8O)nnc7NC[C@H]6C5)nc4)CC2)C3)C(C)(C)C)c(OCCCN(C)C)c1 (single isomer, unassigned) [I-158]
9 |  | 10 to 100 nM | C (C (10-100 fold)) |  | > 100 nM |  | > 100 nM | B (B (>70-90% degradation)) | C (C (50-70% degradation)) | D (D (<50% degradation)) | C#Cc1ccc(CNC(=O)[C@@H]2C[C@@H](O)CN2C(=O)[C@@H](NC(=O)[C@H]2CCC3(CC2)C[C@H](N2CCC(N4CCC(N5CCN6c7cc(-c8ccccc8O)nnc7NC[C@H]6C5)CC4)CC2)C3)C(C)(C)C)c(F)c1 (stereo partly drawn) [I-258]
10 | 70 to 90% | 1 to 10 nM | C (C (10-100 fold)) | 50 to 70% | 10 to 100 nM | > 90% | 10 to 50 nM |  |  |  | C#Cc1ccc(CNC(=O)[C@@H]2C[C@@H](O)CN2C(=O)[C@@H](NC(=O)[C@H]2CCC3(CC2)C[C@H](N2CCN(c4cnc(N5CCN6c7cc(-c8ccccc8O)nnc7NC[C@H]6C5)nc4)CC2)C3)C(C)(C)C)cc1 (single isomer, unassigned) [I-122]
11 | > 90% | 1 to 10 nM | C (C (10-100 fold)) | > 90% | 10 to 100 nM | > 90% | < 10 nM |  |  |  | C#Cc1ccc(CNC(=O)[C@@H]2C[C@@H](O)CN2C(=O)[C@@H](NC(=O)N2CC3(CC(N4CCC(c5cnc(N6CCc7[nH]c8nnc(-c9ccccc9O)cc8c7[C@H]6C)nc5)CC4)C3)C2)C(C)(C)C)c(OC)c1 [I-119]
12 | > 90% | < 1 nM | C (C (10-100 fold)) | > 90% | 1 to 10 nM | > 90% | 10 to 50 nM |  |  |  | C[C@H](NC(=O)[C@@H]1C[C@@H](O)CN1C(=O)[C@@H](NC(=O)[C@H]1CCC2(CC1)C[C@H](N1CCC(c3cnc(N4CCN5c6cc(-c7ccccc7O)nnc6NC[C@H]5C4)nc3)CC1)C2)C(C)(C)C)c1ccc(-c2ccnn2C)cc1 (single isomer, unassigned) [I-21]
13 | > 90% | 1 to 10 nM | D (D (<10 fold)) | > 90% | 10 to 100 nM | 70 to 90% | 10 to 50 nM |  |  |  | Cc1ncsc1-c1ccc(CNC(=O)[C@@H]2C[C@@H](O)CN2C(=O)C(c2cc(OC[C@H]3CC[C@@H](N4CCC(c5cnc(N6CCc7[nH]c8nnc(-c9ccccc9O)cc8c7[C@H]6C)nc5)CC4)CC3)no2)C(C)C)cc1 (single isomer, unassigned) [I-2]
14 |  | > 100 nM | C (C (10-100 fold)) |  | > 100 nM |  | > 100 nM | D (D (<50% degradation)) | D (D (<50% degradation)) | D (D (<50% degradation)) | CC(C)(C)[C@H](NC(=O)[C@H]1CCC2(CC1)C[C@H](N1CCC(c3cnc(N4CCN5c6cc(-c7ccccc7O)nnc6NC[C@H]5C4)nc3)CC1)C2)C(=O)N1C[C@H](O)C[C@H]1C(=O)NCC#Cc1ccc(Cl)cc1 (single isomer, unassigned) [I-114]
15 | < 50% | > 100 nM | C (C (10-100 fold)) | < 50% | > 100 nM | < 50% | > 100 nM |  |  |  | C#Cc1ccc(CNC(=O)[C@@H]2C[C@@H](O)CN2C(=O)[C@H](NC(=O)N2CC3(CC(N4CCC(c5cnc(N6CCc7[nH]c8nnc(-c9ccccc9O)cc8c7[C@H]6C)nc5)CC4)C3)C2)C(C)(C)CCN2CCNCC2)cc1 [I-339]
16 |  | 10 to 100 nM | B (B (>100-500 fold)) |  | > 100 nM |  | > 100 nM | C (C (50-70% degradation)) | C (C (50-70% degradation)) | D (D (<50% degradation)) | Cc1ncsc1-c1ccc(CNC(=O)[C@@H]2C[C@@H](O)CN2C(=O)[C@@H](NC(=O)[C@H]2CC3(C2)C[C@H](N2CCC(N4CCC(c5ccc6[nH]c7nnc(-c8ccccc8O)cc7c6c5)CC4)CC2)C3)C(C)(C)C)cc1 (single isomer, unassigned) [I-29]
17 | 70 to 90% | 1 to 10 nM | A (A (>500 fold)) | < 50% | > 100 nM | > 90% | > 100 nM |  |  |  | C#Cc1ccc(CNC(=O)[C@@H]2C[C@@H](O)CN2C(=O)[C@@H](NC(=O)C2CCC3(CC2)CC(N2CCC(N4CCC(C(=O)N5CCN6c7cc(-c8ccccc8O)nnc7NC[C@H]6C5)CC4)CC2)C3)C(C)(C)C)cc1 (stereo partly drawn) [I-89]
18 | > 90% | 1 to 10 nM | C (C (10-100 fold)) | > 90% | 10 to 100 nM | > 90% | 10 to 50 nM |  |  |  | Cc1ncsc1-c1ccc(CNC(=O)[C@@H]2C[C@@H](O)CN2C(=O)C(c2cc(OC[C@H]3CC[C@H](N4CCC(c5cnc(N6CCc7[nH]c8nnc(-c9ccccc9O)cc8c7[C@@H]6C)nc5)CC4)CC3)no2)C(C)C)cc1 (single isomer, unassigned) [I-15]
